# Measured values from patent publication EP0538297B9, “ANTIVIRAL TETRAHYDROIMIDAZO 1,4]BENZODIAZEPIN-2-(THIO)ONES” (JANSSEN PHARMACEUTICA N.V., priority 1990, dated 1992).
# Legend:
# [1] = tested on: HIV; test: Inhibition of HIV-induced cytopathic effect in MT-4 cells (MTT); type: cell-based; details: for EC50: Human immunodeficiency virus 1, MT4, dose achieving 50% protection of HIV-infected MT-4 cells, MTT, 540 nm, read-out: ED50 (50% effective dose); for SI (selectivity index): ratio of CD50 to ED50
# Protocol: (§1) A rapid, sensitive and automated assay procedure was used for the in-vitro evaluation of anti-HIV agents. An […] T4-cell line, MT-4, which was previously shown (Koyanagi et al., Int. J. Cancer, 36, 445-451, 1985) to be highly susceptible to and permissive for HIV infection, served as the target cell line. Inhibition of the HIV-induced cytopathic effect was used as the end point. The viability of both HIV- and mock-infected cells was assessed spectrophotometrically via the in-situ reduction of 3-(4,5-dimethylthiazol-2-yl)-2,5-diphenyltetrazolium bromide (MTT). The 50% cytotoxic dose (CD50 in µg/ml) was defined as the concentration of compound that reduced the absorbance of the mock-infected control sample by 50%. The percent protection achieved by the compound in HIV-infected cells was calculated by the following formula: ((ODT )HIV - (ODC )HIV)/((ODC )MOCK - (ODC )HIV) [formula] expressed in %, whereby (ODT)HIV is the optical density measured with a given concentration of the test compound in HIV-infected cells; (ODC)HIV is the optical density measured for the control untreated HIV-infected cells; (ODC)MOCK is the optical density measured for the control untreated mock-infected cells; all optical density values were determined at 540 nm. The dose achieving 50% protection according to the above formula was defined as the 50% effective dose (ED50 in µg/ml). The ratio of CD50 to ED50 was defined as the selectivity index (SI).
# [2] = in vitro; type: cell-based; details: human, mt-4 cells
# Protocol: as §1
EC50 [1] [µg/mL],Structure (SMILES),SI (selectivity index) [1],CC50 [2] [µg/mL]
0.038,"CCC(=CCN1Cc2c(C)ccc3[nH]c(=O)n(c23)C[C@@H]1C)CC [compound 5, (+)-(S)-6-(3-ethyl-2-pentenyl)-4,5,6,7-tetrahydro-5,8-dimethylimidazo-[4,5,1-jk][1,4]benzodiazepin-2(1H)-one]",370,14.3
0.006,"CCC(=CCN1Cc2cc(Cl)cc3[nH]c(=S)n(c23)C[C@@H]1C)CC.Cl [compound 7, (-)-(S)-9-chloro-6-(3-ethyl-2-pentenyl)-4,5,6,7-tetrahydro-5-methylimidazo[4,5,1-jk][1,4]benzodiazepine-2(1H)-thione monohydrochloride]",850,5.2
0.032,CCC(=CCN1Cc2cc(Cl)cc3[nH]c(=O)n(c23)C[C@@H]1C)CC [compound 2],>312,> 10
